target: GLP-1R (Homo sapiens, UniProt P43220); assay: GLP-1R agonist cAMP stimulation assay (HTRF cAMP); type: cell-based; conditions: HEK293 cell line expressing GLP-1 target; HTRF cAMP agonist mode, 30 min at RT
Method in brief: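 GLP-1R-expressing cells were stimulated with 10-point, 3-fold compound dilutions for 30 min at RT; HTRF cAMP detection reagents were then added for 60 min and the 665/615 ratio read. Ratios were converted to cAMP via a standard curve and % activity scaled between DMSO and top-concentration GLP-1(7-37) reference wells.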

GLP-1R, sequence (P43220 24-463): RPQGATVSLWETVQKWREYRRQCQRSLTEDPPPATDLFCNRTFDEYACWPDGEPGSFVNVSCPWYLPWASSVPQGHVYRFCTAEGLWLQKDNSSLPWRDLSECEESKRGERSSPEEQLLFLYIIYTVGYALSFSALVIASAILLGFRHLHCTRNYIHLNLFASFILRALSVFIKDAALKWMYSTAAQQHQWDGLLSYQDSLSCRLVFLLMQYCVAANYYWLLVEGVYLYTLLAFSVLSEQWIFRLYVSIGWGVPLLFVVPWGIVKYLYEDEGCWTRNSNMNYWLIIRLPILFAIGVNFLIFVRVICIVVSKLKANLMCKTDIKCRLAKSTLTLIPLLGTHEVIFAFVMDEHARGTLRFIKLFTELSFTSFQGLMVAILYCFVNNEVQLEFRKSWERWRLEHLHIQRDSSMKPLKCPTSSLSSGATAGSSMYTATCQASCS

EC50 [nM]	SMILES
2.21	O=C(Nc1ccc2c(c1)nc(CN1CC=C(c3cccc(OCc4ccc(Cl)cc4F)n3)CC1)n2C[C@@H]1CCO1)c1ccc2[nH]nc(F)c2c1 [Compound 202]
3.56	Cc1cc(C(=O)Nc2ccc3c(c2)nc(CN2CC=C(c4cccc(OCc5ccc(Cl)cc5F)n4)CC2)n3C[C@@H]2CCO2)c(F)c2c(C)n[nH]c12 [Compound 222]
4.36	N#Cc1ccc(COc2cccc(C3CCN(Cc4nc5cc(C(=O)NCC(=O)N6C[C@@H](F)C[C@H]6C(=O)O)ccc5n4C[C@@H]4CCO4)CC3)n2)c(F)c1 [Compound 44]
0.79	Cc1cc(C(=O)Nc2ccc3c(c2)nc(CN2CC=C(c4cccc(OCc5ccc(Cl)cc5F)n4)CC2)n3C[C@@H]2CCO2)cc2c(C(F)F)n[nH]c12 [Compound 217]
1.75	C[C@@H](NC(=O)c1ccc2c(c1)nc(CN1CCC(c3cccc(OCc4ccc(Cl)cc4F)n3)CC1)n2C[C@@H]1CCO1)C(=O)N1C[C@@H](O)C[C@@H]1C(=O)O [Compound 65]
12.7	CC1(c2ccc(Cl)cc2F)Oc2cccc(C3=CCN(Cc4nc5cc(C(=O)Nc6ccc7[nH]nc(F)c7c6)ccc5n4CC4CCO4)CC3)c2O1 (centres unmarked) [Compound 328]
0.37	Cc1n[nH]c2c(F)cc(NC(=O)c3ccc4c(c3)nc(CN3CC=C(c5cccc6c5O[C@@](C)(c5ccc(C#N)cc5F)O6)CC3)n4CC3CCO3)cc12 (some centres unmarked) [Compound 298]
0.23	Cc1n[nH]c2c(F)cc(NC(=O)c3ccc4c(c3)nc(CN3CC=C(c5cccc(OCc6ccc(C#N)cc6F)n5)CC3)n4C[C@@H]3CCO3)cc12 [Compound 177]
6.21	Cc1n[nH]c2ccc(NC(=O)c3ccc4nc(CN5CC=C(c6cccc(OCc7ccc(C#N)cc7F)n6)CC5)n(CC5CCO5)c4c3)cc12 (centres unmarked) [Compound 275]
0.55	Cc1n[nH]c2c(F)cc(C(=O)Nc3ccc4c(c3)nc(CN3CCC(c5cccc(OCc6cc(F)c(C#N)s6)n5)CC3)n4C[C@@H]3CCO3)cc12 [Compound 374]
0.63	Cc1n[nH]c2c(C(F)F)cc(NC(=O)c3ccc4c(c3)nc(CN3CCC(c5cccc(OCc6ccc(Cl)cc6F)n5)CC3)n4C[C@@H]3CCO3)cc12 [Compound 119]
0.65	Cc1cc2c(C#N)ccc(COc3cccc(C4CCN(Cc5nc6cc(NC(=O)c7cc(F)c8[nH]nc(C)c8c7)ccc6n5C[C@@H]5CCO5)CC4)n3)c2o1 [Compound 372]
0.91	Cc1cc(NC(=O)c2ccc3c(c2)nc(CN2CC=C(c4cccc5c4OC(C)(c4ccc(Cl)cc4F)O5)CC2)n3C[C@@H]2CCO2)cc2[nH]c(=O)[nH]c12 (some centres unmarked) [Compound 303]
1.62	Cc1cc2c(C#N)ccc(COc3cccc(C4=CCN(Cc5nc6cc(NC(=O)c7ccc8[nH]nc(C(F)(F)F)c8c7)ccc6n5C[C@@H]5CCO5)CC4)n3)c2o1 [Compound 359]
0.21	Cc1cc(C(=O)Nc2ccc3c(c2)nc(CN2CC=C(c4cccc5c4OC(C)(c4ccc(Cl)cc4F)O5)CC2)n3C[C@@H]2CCO2)cc2c1NC(=O)C21CC1 (some centres unmarked) [Compound 307]
10.8	O=C(Nc1ccc2[nH]nc(Cl)c2c1)c1ccc2nc(CN3CC=C(c4cccc(OCc5ccc(Cl)cc5F)n4)CC3)n(CC3CCO3)c2c1 (centres unmarked) [Compound 269]
3.41	Cc1cc(NC(=O)c2ccc3c(c2)nc(CN2CCC(c4cccc(OCc5cc(F)c(C#N)s5)n4)CC2)n3C[C@@H]2CCO2)cc2c(C(F)(F)F)n[nH]c12 [Compound 377]
0.18	Cc1n[nH]c2c(F)cc(C(=O)Nc3ccc4c(c3)nc(CN3CC=C(c5cccc(OCc6ccc(C#N)cc6F)n5)CC3)n4C[C@@H]3CCO3)cc12 [Compound 225]
1.32	Cc1n[nH]c2c(Cl)cc(NC(=O)c3ccc4c(c3)nc(CN3CCC(c5cccc6c5OC(C)(c5ccc(Cl)cc5F)O6)CC3)n4CC3CCO3)cc12 (centres unmarked) [Compound 338]
189	COCCn1c(Cc2ccc(-c3cccc(OCc4ccc(C#N)cc4F)n3)cc2)nc2cc(NC(=O)CCc3ccccc3O)ccc21 [Compound 13]
1.04	Cc1cc(C(=O)Nc2ccc3c(c2)nc(CN2CC=C(c4cccc(OCc5ccc(C#N)cc5F)n4)CC2)n3C[C@@H]2CCO2)cc2cn[nH]c12 [Compound 236]
0.54	Cc1n[nH]c2c(F)cc(C(=O)Nc3ccc4c(c3)nc(Cc3c(F)cc(-c5cccc6c5OC(C)(c5ccc(C#N)cc5F)O6)cc3F)n4CC3CCO3)cc12 (centres unmarked) [Compound 316]
1.57	N#Cc1ccc(COc2cccc(C3=CCN(Cc4nc5cc(C(=O)Nc6ccc7[nH]nc(C(F)(F)F)c7c6)ccc5n4C[C@@H]4CCO4)CC3)n2)c(F)c1 [Compound 184]
3.12	Cc1n[nH]c2c(F)cc(NC(=O)c3ccc4c(c3)nc(CN3CCC(c5cccc(OCc6ccc(C#N)c7c6ncn7C)n5)CC3)n4C[C@@H]3CCO3)cc12 [Compound 379]
1380	COCCn1c(CN2CCC(c3cccc(OCc4ccc(Cl)cc4F)n3)CC2)nc2cc(C(=O)NCc3ccc(C#N)cc3)ccc21 [Compound 30]
372	Cc1n[nH]c2cc(NC(=O)c3ccc4c(c3)nc(CN3CCC(c5cccc(OCc6ccc(Cl)cc6F)n5)CC3)n4C[C@@H]3CCO3)ccc12 [Compound 94]
20.7	Cc1n[nH]c2cnc(C(=O)Nc3ccc4c(c3)nc(CN3CC=C(c5cccc(OCc6ccc(Cl)cc6F)n5)CC3)n4C[C@@H]3CCO3)nc12 [Compound 240]

EC50 [nM]	SMILES
3.76	CC(C)c1n[nH]c2ccc(NC(=O)c3ccc4c(c3)nc(CN3CCC(c5cccc(OCc6ccc(Cl)cc6F)n5)CC3)n4C[C@@H]3CCO3)cc12 [Compound 83]
2.34	O=C(Nc1ccc2[nH]nc(C(F)(F)F)c2c1)c1ccc2c(c1)nc(CN1CCC(c3cccc(OCc4ccc(Cl)cc4F)n3)CC1)n2C[C@@H]1CCO1 [Compound 111]
0.81	CC(C)c1n[nH]c2ccc(C(=O)Nc3ccc4c(c3)nc(CN3CCC(c5cccc6c5OC(C)(c5ccc(C#N)cc5F)O6)CC3)n4CC3CCO3)cc12 (centres unmarked) [Compound 347]
15.1	Cc1n[nH]c2ccc(C(=O)Nc3ccc4c(c3)nc(C(F)(F)N3CC=C(c5cccc(OCc6ccc(Cl)cc6F)n5)CC3)n4C[C@@H]3CCO3)cc12 [Compound 257]
> 10000	Fc1cc(Cl)ccc1COc1cccc(C2=CCN(Cc3nc4cc(-c5nc(-c6c[nH]c(C(F)(F)F)n6)co5)ccc4n3C[C@@H]3CCO3)CC2)n1 [Compound 399]
256	COCCn1c(CN2CCC(c3cccc(OCc4ccc(Cl)cc4F)n3)CC2)nc2cc(C(=O)NC3Cc4cc(C)c(O)cc4C3)ccc21 (centres unmarked) [Compound 43]
112	COCCn1c(CN2CCC(c3cccc(OCc4ccc(Cl)cc4F)n3)CC2)nc2cc(C(=O)NCc3cccc(O)c3)ccc21 [Compound 32]
0.76	Cc1cc(NC(=O)c2ccc3c(c2)nc(CN2CC=C(c4cccc(OCc5ccc(C#N)cc5F)n4)CC2)n3C[C@@H]2CCO2)cc2c(C(F)F)n[nH]c12 [Compound 183]
6.18	O=C(Nc1ccc2[nH]nc(C3CC3)c2c1)c1ccc2c(c1)nc(CN1CCC(c3cccc(OCc4ccc(Cl)cc4F)n3)CC1)n2C[C@@H]1CCO1 [Compound 112]
87.8	O=C(Nc1ncc2[nH]cnc2n1)c1ccc2c(c1)nc(CN1CCC(c3cccc(OCc4ccc(Cl)cc4F)n3)CC1)n2C[C@@H]1CCO1 [Compound 89]
1.39	Cc1n[nH]c2c(C(F)(F)F)cc(C(=O)Nc3ccc4c(c3)nc(CN3CC=C(c5cccc6c5OC(C)(c5ccc(Cl)cc5F)O6)CC3)n4C[C@@H]3CCO3)cc12 (some centres unmarked) [Compound 313]
10.1	Cc1[nH]c2ccc(C(=O)Nc3ccc4c(c3)nc(CN3CC=C(c5cccc(OCc6ccc(Cl)cn6)n5)CC3)n4C[C@@H]3CCO3)cc2c1C [Compound 392]
14.5	COc1n[nH]c2ccc(NC(=O)c3ccc4c(c3)nc(CN3CCC(c5cccc(OCc6ccc(Cl)cc6F)n5)CC3)n4C[C@@H]3CCO3)cc12 [Compound 81]
0.68	Cc1n[nH]c2c(C(F)(F)F)cc(NC(=O)c3ccc4c(c3)nc(CN3CC=C(c5cccc(OCc6ccc(Cl)cc6F)n5)CC3)n4C[C@@H]3CCO3)cc12 [Compound 156]
90.1	O=C(NCc1ccc(O)cc1)c1ccc2c(c1)nc(CN1CCC(c3cccc(OCc4ccc(Cl)cc4F)n3)CC1)n2C[C@@H]1CCO1 [Compound 24]
1.05	Cc1n[nH]c2c(C(F)(F)F)cc(C(=O)Nc3ccc4c(c3)nc(Cc3ccc(-c5cccc6c5OC(C)(c5ccc(C#N)cc5F)O6)cc3F)n4C[C@@H]3CCO3)cc12 (some centres unmarked) [Compound 325]
2.19	CC1(c2ccc(Cl)cc2F)Oc2cccc(C3CCN(Cc4nc5cc(C(=O)Nc6ccc7[nH]nc(C(F)(F)F)c7c6)ccc5n4CC4CCO4)CC3)c2O1 (centres unmarked) [Compound 333]
1.02	CC1(c2ccc(Cl)cc2F)Oc2cccc(C3=CCN(Cc4nc5cc(C(=O)Nc6ccc7[nH]nc(C8CC8)c7c6)ccc5n4CC4CCO4)CC3)c2O1 (centres unmarked) [Compound 294]
0.54	Cc1cc(C(=O)Nc2ccc3c(c2)nc(CN2CCC(c4cccc5c4OC(C)(c4ccc(Cl)cc4F)O5)CC2)n3C[C@@H]2CCO2)cc2c1NC(=O)C21CC1 (some centres unmarked) [Compound 343]
10.2	CCc1cc(NC(=O)c2ccc3c(c2)nc(CN2CCC(c4cccc(OCc5ccc(Cl)cc5F)n4)CC2)n3C[C@@H]2CCO2)cc2c(C)n[nH]c12 [Compound 117]
0.83	Cc1cc(C(=O)Nc2ccc3c(c2)nc(C2CC24CCN(c2cccc(OCc5ccc(Cl)cc5F)n2)CC4)n3C[C@@H]2CCO2)cc2c1NC(=O)C21CC1 (some centres unmarked) [Compound 247]
0.19	Cc1n[nH]c2c(F)cc(NC(=O)c3ccc4c(c3)nc(CN3CC=C(c5cccc6c5O[C@](C)(c5ccc(C#N)cc5F)O6)CC3)n4CC3CCO3)cc12 (some centres unmarked) [Compound 300]
12.8	NC(=O)C[C@H](NC(=O)c1ccc2c(c1)nc(CN1CCC(c3cccc(OCc4ccc(Cl)cc4F)n3)CC1)n2CC1CCO1)C(=O)O (some centres unmarked) [Compound 52]
0.22	N#Cc1ccc(COc2cccc(C3=CCN(Cc4nc5cc(NC(=O)c6cc(F)c7c(c6)C6(CC6)C(=O)N7)ccc5n4C[C@@H]4CCO4)CC3)n2)c(F)c1 [Compound 227]
122	COCCn1c(Cc2ccc(-c3cccc(OCc4ccc(C#N)cc4F)n3)cc2)nc2cc(C(=O)NCCc3ccc(C(=O)O)cc3)ccc21 [Compound 12]
1.9	O=C(NCC(=O)N1CC[C@@H](O)C1)c1ccc2c(c1)nc(CN1CCC(c3cccc(OCc4ccc(Cl)cc4F)n3)CC1)n2C[C@@H]1CCO1 [Compound 77]

Source: patent US20230271949A1, “GLP-1R MODULATING COMPOUNDS” (ASCLETIS BIOSCIENCE CO., LTD., priority 2022, published 2023)
